Measurements as given in PMC8152350, “High cytotoxicity of betulin towards fish and murine fibroblasts: Is betulin safe for nonneoplastic cells?” (BMC Veterinary Research, 2021).
Converted amounts (≈) assume the structure as drawn.

Tests used:
[1] = MTT assay (mitochondrial activity), murine fibroblasts; conditions: mouse
Procedure: (§1) NIH/3T3 (ATCC CRL-1658) mouse embryonic fibroblasts were grown in Dulbecco’s modified Eagle’s medium (DMEM) supplemented with 2 mM glutamine, 10 % foetal bovine serum and a 1 % antibiotic-antimycotic solution at 37 °C in a humidified atmosphere with 5 % CO2.
(§2) NIH/3T3 and BF-2 cells were seeded in 96-well plates at a density of 1 × 10^4 or 2 × 10^4 cells per well, respectively. After 24 h of incubation at an appropriate temperature, cells were exposed to betulin at the concentrations mentioned above for 24, 48 and 72 h. Control (untreated) cells served as the negative control and a reference point. Triton X-100 treated cells served as the positive internal control in MTT, NRU and LDH assays. Due to the specific character of SRB assay, there was no positive control in this test. After 24, 48 and 72 h of treatment, the four different cytotoxicity assays were performed. All experiments were repeated three times.
(§3) The MTT assay is used to estimate mitochondrial damage, since it determines the activity of mitochondrial enzymes. These enzymes reduce the water-soluble tetrazolium dye MTT to insoluble purple formazan, which accumulates inside viable cells.
(§4) The MTT assay was conducted using the protocol described by Mosmann, with some modifications described in our previous article.
(§5) The MTT assay was used to determine the cytotoxicity of both betulin and the vehicle (DMSO).
(§6) All experiments were repeated three times. […] Statistical analyses were performed using GraphPad Prism software (GraphPad Software, USA). Data were subjected to one-way analysis of variance (ANOVA). Dunnett’s posttest was used to determine differences between control and betulin-exposed cells at the same time points. Differences between the two cell lines at the same time points were determined using Student’s t-test. The 50 % cytotoxic concentrations (CC50, defined as the concentration of the compound that reduced cell viability by 50 %) were calculated using the Quest Graph™ ED50 Calculator (AAT Bioquest, Inc.).

[2] = tested on: NIH/3T3 cells; assay: as above
Procedure: as §1, §2, §3, §4, §5, §6

[3] = MTT assay (mitochondrial activity), fish fibroblasts; assay type: cell-based, bluegill; conditions: bluegill, BF-2 caudal trunk fibroblasts, mean ± SD, n = 3
Procedure: (§7) BF-2 (ATCC CCL-91) bluegill caudal trunk fibroblasts were grown in minimum essential medium (Eagle, EBSS) supplemented with 1 % nonessential amino acids (NEAAs), 10 % foetal bovine serum and 1 % antibiotic-antimycotic solution at 23 °C in a humidified atmosphere with 5 % CO2.
(§8) All experiments were repeated three times.

[4] = tested on: BF-2 cells; assay: as above; assay type: cell-based, bluegill; conditions: fish cells
Procedure: as §7, §8

[5] = NRU assay (lysosomal membrane integrity), fish fibroblasts; assay type: cell-based, bluegill; conditions: bluegill, BF-2 caudal trunk fibroblasts, mean ± SD, n = 3
Procedure: as §7, §8
(§9) The NRU assay evaluates lysosomal membrane integrity. It measures neutral red dye accumulation within lysosomes of viable cells.
(§10) The NRU assay was performed using a commercially available kit (TOX4) (Sigma-Aldrich, Poland) according to the manufacturer’s protocol. The full description of the test procedure was also provided in a published article.

[6] = tested on: BF-2 cells; assay: as above; assay type: cell-based, bluegill; conditions: BF-2, regardless of the time of incubation
Procedure: as §7, §8, §9, §10

[7] = tested on: BF-2 cells; assay: LDH leakage assay (cellular membrane integrity), fish fibroblasts; assay type: cell-based, bluegill; conditions: BF-2, 24 h
Procedure: as §7, §8
The LDH assay measures leakage of the stable cytosolic enzyme lactate dehydrogenase into the culture medium, which is an indicator of irreversible cell membrane damage and cell death.
The LDH assay was performed using a commercially available kit (TOX7) (Sigma-Aldrich, Poland) according to the manufacturer’s protocol. The full description of the test procedure was also reported previously. The results obtained are reported as the percentage of LDH leakage to the culture media in control (nontreated) cells.

[8] = Solubility of betulin in DMSO; assay type: physicochemical; conditions: organic solvent or mixture, thermodynamic from solid, room temperature, read-out: maximum solubility of betulin in DMSO
Procedure: We were able to dissolve 5000 µg of betulin in 1 mL of DMSO, although it required heating, and the solution remained unstable. After mixing with the cell culture medium, the solution immediately became slightly turbid.
A stock solution of betulin was prepared in DMSO at a concentration of 2500 µg/mL, and working solutions were prepared in cell maintenance media (serum-free) at final concentrations of 0 (control cells), 0.244, 0.488, 0.976, 1.95, 3.9, 7.8, 15.625 and 31.25 µg/mL immediately before use in cell culture.

[9] = tested on: murine fibroblasts (Balb 3T3 line); parameters: method as in PMID 23595090; conditions: Balb 3T3, incubation time not given; cited from earlier work
[10] = tested on: human lung fibroblasts (WI 38); parameters: method as in PMID 12697374; conditions: WI 38, trypan blue exclusion, 72 h, cited from earlier work
[11] = tested on: U937; parameters: method as in PMID 12697374; conditions: U937 leukaemia; read-out: IC50 of betulin; cited from earlier work
[12] = tested on: GOTO; parameters: method as in PMID 12697374; conditions: GOTO neuroblastoma; read-out: IC50 of betulin; cited from earlier work
[13] = tested on: A-549; parameters: method as in PMID 16787747; conditions: read-out: IC50 of betulin; cited from earlier work
[14] = tested on: MCF-7 (breast cancer); parameters: method as in PMID 22627971, PMID 23379693; conditions: MCF-7, 20 µM; cited from earlier work
[15] = tested on: SW707 (colorectal adenocarcinoma); parameters: method as in PMID 23595090; conditions: SW707, SRB assay; cited from earlier work
[16] = tested on: CCRF/CEM (leukaemia); parameters: method as in PMID 23595090; conditions: MTT assay; cited from earlier work
[17] = tested on: porcine chondrocytes; conditions: cited from earlier work
[18] = tested on: porcine chondrocytes; conditions: cited from earlier work; remark: listed apart in the source

For `C=C(C)[C@@H]1CC[C@]2(CO)CC[C@]3(C)[C@H](CC[C@@H]4[C@@]5(C)CC[C@H](O)C(C)(C)[C@@H]5CC[C@]43C)[C@@H]12` [betulin, Betulin], which CC50 at 24 h [1] is on record?
The CC50 at 24 h was 1.532 ± 0.005 µg/mL (≈ 3.46 µM).

And the CC50 at 48 h [1]?
Its CC50 at 48 h is 1.58 ± 0.64 µg/mL (≈ 3.58 µM).

And the CC50 at 72 h [1]?
The CC50 at 72 h was 1.85 ± 0.647 µg/mL (≈ 4.19 µM).

And the “decrease in cell viability in the MTT assay” value ([2]; NIH/3T3, betulin 7.8 µg/mL, 72 h)?
Its value is “approximately 80%”.

And the “betulin concentration causing statistically significant decrease in viability (MTT)” value ([2]; mouse cells, 24 h, threshold persisted until termination of the experiment)?
The value was no less than 1.95 µg/mL.

What about the CC50 at 24 h ([3]; BF-2, 24 h, read-out: CC50 betulin MTT 24 h) of the same compound?
Its CC50 at 24 h is 3.39 ± 0.903 µg/mL (≈ 7.67 µM).

What about the CC50 at 48 h ([3]; BF-2, 48 h, read-out: CC50 betulin MTT 48 h) of the same compound?
Its CC50 at 48 h is 2.75 ± 1.05 µg/mL (≈ 6.21 µM).

And the CC50 at 72 h ([3]; BF-2, 72 h, read-out: CC50 betulin MTT 72 h)?
The CC50 at 72 h was 3.02 ± 1.03 µg/mL (≈ 6.82 µM).

What about the “betulin concentration causing statistically significant decrease in viability (MTT)” value ([4]; 24 h) of the same compound?
The value was no less than 1.95 µg/mL.

What about the “lower betulin concentration causing considerable decrease in viability (MTT)” value ([4]; starting at 48 h of incubation) of the same compound?
The value was 0.976 µg/mL.

And the CC50 at 24 h ([5]; BF-2, 24 h, read-out: CC50 betulin NRU 24 h)?
Its CC50 at 24 h is 27.6 ± 9.01 µg/mL (≈ 62.4 µM).

What about the CC50 at 48 h ([5]; BF-2, 48 h, read-out: CC50 betulin NRU 48 h) of the same compound?
The CC50 at 48 h was 16.5 ± 3.6 µg/mL (≈ 37.2 µM).

And the CC50 at 72 h ([5]; BF-2, 72 h, read-out: CC50 betulin NRU 72 h)?
The CC50 at 72 h was 14.5 ± 3.41 µg/mL (≈ 32.8 µM).

And the “betulin concentration causing considerable decrease in viability (NRU)” value [6]?
The value was “at least 15.625 µg/mL”.

What about the “betulin concentration inducing substantial LDH leakage” value [7] of the same compound?
Its value is 7.8 µg/mL.

What about the solubility [8] of the same compound?
The solubility was 2500 µg/mL (≈ 5650 µM).

What about the “IC50 of betulin (SRB)” value [9] of the same compound?
The value was 47.3 µg/mL.

What about the “IC50 of betulin, converted” value ([10]; conversion of µM value) of the same compound?
Its value is “ca. 6.75 µg/ml”.

What about the IC50 ([10]; read-out: IC50 of betulin) of the same compound?
Its IC50 is 15.2 µM.

And the IC50 [11]?
The IC50 was 14.4 µM.

What about the IC50 [12] of the same compound?
Its IC50 is 17.1 µM.

And the IC50 [13]?
Its IC50 is 3.8 µM.

And the “inhibitory activity of betulin” value [14]?
The value was 53.2%.

What about the IC50 of betulin [15] of the same compound?
Its IC50 of betulin is 22.9 µg/mL.

And the IC50 of betulin [16]?
Its IC50 of betulin is 10.9 µg/mL.

What about the “betulin concentrations not affecting integrity of the cytoplasmic membrane (LDH)” value [17] of the same compound?
The value was “up to 5.12 µg/mL”.

What about the “betulin concentration causing considerable decrease in viability (MTT)” value [18] of the same compound?
The value was 0.02 µg/mL.
